Reference: publication PMC9112550, “Optimization of the antimicrobial peptide Bac7 by deep mutational scanning” (BMC Biology, 2022)
Where no end group is shown, it is not given here.

Key:
E. coli ribosomes = settings: S30 extract E. coli ATCC 25922; firefly luciferase mRNA; 800 to 0.08 μM; 1 h, 37°C; n = 9; p = 0.15, Wilcoxon, not significant
Procedure: To measure inhibition of the E. coli ATCC 29522 ribosome, an S30 extract from E. coli cells was purified. E. coli ATCC 25922 was grown in 2 l of liquid LB medium at 37°C and 160 rpm. Cells were harvested in the logarithmic phase by centrifugation for 30 min at 3500 × g at 4°C. The cell pellet was washed with ice-cold S30 buffer (20 mM Tris-acetate pH 8.2, 60 mM potassium acetate, 14 mM magnesium acetate, and 3 mM β-mercaptoethanol) and pelleted again for 30 min at 3500 × g at 4°C. The resulting cell pellet was shock-frozen in liquid nitrogen and stored at −80°C until further processing. Frozen E. coli cells were thawed on ice and resuspended in four times their volume ice-cold S30 buffer. The resulting cell suspension was lysed by passing it twice through a microfluidizer processor (Microfluidics, Westwood, MA, USA) at 25,000 lb/in^2 and the cell lysate was immediately amended with DTT to a final concentration of 1 mM. The lysate was then centrifuged twice for 30 min at 30,000 × g at 4°C. After each centrifugation cycle, the clear supernatant was carefully decanted and the pellet discarded. Aliquots of S30 extract were shock-frozen in liquid nitrogen and stored at −80°C.
Sealed plates were incubated for 1 h at 37°C and stopped on ice before adding 75 μl of luciferase assay reagent (Promega) to each reaction. […]

E. coli TOP10 = test: Membrane damage assay in MHB I (GFP loss, PI uptake); format: cell-based; settings: not cation-adjusted, n = 3
Procedure: For membrane damage assays, the bacterial strain […] [pSEVA271-sfGFP] and the peptide dilutions were prepared as described for the MIC measurements but by scaling all volumes 5-fold and using 96-well plates (polypropylene, U-bottom, 650201, Greiner, Kremsmünster, AT) with a final assay volume of 200 μl. The bacterial strain suspension was furthermore supplemented with a final concentration of 1 μg ml^−1 propidium iodide (PI, from a 1 mg ml^−1 stock in water) just before pipetting the assay. After 1 h incubation at room temperature, the cell membrane integrity was assessed by flow cytometry using a Fortessa Analyzer (BD Biosciences) and appropriate filters for GFP and PI (488-nm laser with 530/30-nm bandpass filter and 579-nm laser with 610/20-nm bandpass filter). […]
Fig. S8 | Membrane damage assay. Membrane damage assays measuring PI uptake of the cells (% cells are given that gained PI fluorescence) and GFP loss (% of the cells are given that lost sfGFP fluorescence) when incubating E. coli TOP10 cells with various peptide concentrations in MHB I (n=3; error bars = 1SD).Fig. S7 | Interactions observed per amino acid residue. For each amino acid residue, the occurrences of interactions at all positions were counted. No antagonistic effect was detected for glutamate and valine residues. No interaction was detected for serine. […]

E. coli ATCC 25922 = test: In vivo efficacy, murine septicemia model; settings: 10 CD-1 mice, up to 3 days
Procedure: CD-1 mice (7 weeks old, 27–28 g female) were used (Charles River, France). These animals were housed for a week of acclimation period before the experiment in a protected area in the ‘Centre de Zootechnie de l’Université de Bourgogne’ (Biosafety level 2 facility) and fed ad libitum according to the current recommendations by the European Institute of Health. Housing took place in rooms where a 12-h/12 h light/dark cycle is applied, the temperature ranges from 18 to 21°C and the relative humidity from 45 to 65%. The animal facility is authorized by the French authorities (Agreement N° C 21 464 04 EA). […]
For animal experiments, Bac7PS was synthesized at Genscript as acetate salt and with a purity of 92%. […] First, the maximum tolerated dose (MTD) for the peptide was determined by testing different peptide doses in 8 groups with 5 animals per group. The peptide solution was administered once by intraperitoneal (IP) injection with a volume of between 94 and 240 μl (depending on the weight of the animal and the dosage) and the animals were monitored for 2 h following the injection, then 6 to 8 h later, and then once or twice a day, depending on the clinical status, up to 5 days post-injection. […] As endpoint, the wellbeing and survival rate, on a twice daily based evaluation for up to 3 days, was monitored.

HEK 293 ribosomes = test: In vitro translation inhibition assay, HEK 293 S30 extract; format: biochemical, human; settings: firefly luciferase mRNA, 800 to 0.08 μM, 1 h, 37°C, n = 9, p<10^−5, Wilcoxon
Procedure: To measure inhibition of the HEK 293 ribosome, an S30 extract was prepared from HEK 293-F cells. Suspension cultures of HEK 293-F cells (Gibco, Thermo Fisher) were maintained in 293 SFM II medium (Thermo Fisher) supplemented with 4 mM of L-glutamine according to the manufacturer’s instructions. Cells in the logarithmic phase were harvested by centrifugation for 18 min at 200 × g at 4°C. The cell pellet was washed twice with ice-cold PBS and pelleted again for 5 min at 200 × g at 4°C. Subsequently, cells were washed twice with ice-cold washing buffer (35 mM HEPES-KOH buffer pH 7.4, 146 mM NaCl, 11 mM D-(+)-glucose) and centrifuged for 5 min at 200 × g and 4°C. Cells were then resuspended in twice the volume of hypotonic buffer (20 mM HEPES-KOH buffer pH7.4, 10 mM KCl, 1.5 mM magnesium acetate, 1 mM DTT) and incubated for 10 min on ice. Cells were disrupted using a glass Dounce tissue homogenizer (Kimble, DWK Life Sciences, Mainz, Germany). After disruption, 0.1 volume of 10fold buffer (200 mM HEPES-KOH buffer pH 7.4, 1.2 M potassium acetate, 40 mM magnesium acetate, 50 mM DTT) of the total amount of hypotonic buffer was added. Cell debris was pelleted by centrifuging the lysate for 10 min at 700 × g at 4°C. The supernatant was then centrifuged for 15 min at 30,000 × g at 4°C.
(BIO-TEK FLx80, Witec AG, Littau, CH). […] Y=Bottom + (Top-Bottom)/(1+10^((X-LogIC50)))”.

RRIRIRPPRLPRPRPRPYFMPRP [Bac7PS]
mean increase of activity on E. coli ribosomes (translation inhibition IC50) compared to Bac7_1-23 (E. coli ribosomes): 10% | membrane damage, compared with MHB II (E. coli TOP10): more pronounced | survival (E. coli ATCC 25922; 10 mg kg^−1 IP twice (1 and 4 h post-infection)): 60% | survival (E. coli ATCC 25922; 30 mg kg^−1 IP twice (1 and 4 h post-infection)): 80% | mean increase in ribosomal binding (translation inhibition IC50), HEK 293 ribosomes, compared to Bac7_1-23 (HEK 293 ribosomes): 38%
